Activity calls are given as the source filed them.
Columns and labels:
HEK293 = experiment: viability loss in HEK293T cells – cell-based, ATP luminescence, cherry-pick samples, cytotoxicity control, dose response (AID 687005); format: functional; details: Homo sapiens;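 further: cells exposed to compound for 48 hours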
[1] = HEK293 Cytotoxicity Assay Measured in Cell-Based System Using Plate Reader - 7071-01_Inhibitor_Dose_CherryPick_Activity_Set2.; format: functional
[2] = P. falciparum Dd2 growth inhibitors, dose response, SYBR Green, cherry-picked samples (AID 1159567); format: functional, cell-based
[3] = toxicity to human hepatoma HepG2 cells – cell-based, cherry-picked samples, cytotoxicity control, dose response (AID 1159577); format: functional
[4] = blockers of HIV-1 envelope-mediated cell-cell fusion – cherry-pick, dose response (AID 652057); format: functional, cell-based
[5] = blockers of HIV-1 ZM109 envelope-driven cell-cell fusion – HeLa effector, CEM target cells, luciferase, cherry-pick, dose response (AID 652058); format: functional, cell-based;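 further: luciferase signal from HIV-1 Env mediated cell-cell fusion of effector and target cells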
[6] = HIV-1 AD8 envelope cell-cell fusion blockers – cherry-pick, dose response (AID 652062); format: functional, cell-based;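 further: luciferase signal from cell-cell fusion driven by HIV-1 clade B AD8 Env; potency is for inhibitors of fusion seen as a drop in luminescence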
[7] = inhibition of Env-driven cell fusion – HIV entry, plate reader, dry powder, dose response (AID 687023); format: functional, cell-based
[8] = viability loss in CEM21 cells – cell-based, plate reader, dry powder, cytotoxicity control, dose response (AID 687026); format: functional
[9] = reduced cellular PGC1a acetyl-lysine signal – cell-based, cherry-picked samples, dose response (AID 720514); format: functional;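 further: potency may reflect raised or lowered acetylation signal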
[10] = Late stage assay provider results from the probe development effort to identify inhibitors of the Plasmodium falciparum M18 Aspartyl Aminopeptidase (M18AAP): radiolabel-based cell-based dose response assay to identify compounds that inhibit P. falciparum growth in RBCs, Set 2..; format: functional
[11] = Dd2 parasite growth inhibition in erythrocytes – SYBR Green, dry powder samples, set 4, dose response (AID 1159572); format: functional, cell-based
[12] = Dd2 parasite growth inhibition in erythrocytes – SYBR Green, dry powder samples, set 9, dose response (AID 1159568); format: functional, cell-based
[13] = target: RNA-editing ligase 1, mitochondrial (Trypanosoma brucei brucei, UniProt P86926); experiment: inhibition of trypanosome RNA editing ligase – biochemical, fluorescence, Trypanosoma brucei, dose response (AID 1117295); format: functional
[14] = rise of 2N DNA cells, HeLa – IC50, dose response (AID 1117349); format: functional, cell-based
[15] = CellTiter-Glo luminescence survival assay, SW480 colon tumor line, concentration-response curve, half-maximal inhibitory concentration (AID 1117338); format: functional
[16] = RKO cell viability reduction, dose response, CellTiter-Glo luminescence (AID 1117322); format: functional
[17] = cytotoxicity toward HCT116 cells – cell-based, CellTiter-Glo luminescence, IC50, dose response (AID 1117332); format: functional; details: HCT-116
[18] = SNU-C1 cell viability reduction, dose response, CellTiter-Glo luminescence (AID 1117323); format: functional, cell-based
[19] = cytotoxicity toward Colo320 cells – cell-based, CellTiter-Glo luminescence, IC50, dose response (AID 1117334); format: functional; details: COLO 320
[20] = rise of 4N DNA cells, HeLa – IC50, dose response (AID 1117351); format: functional, cell-based
[21] = cytotoxicity toward HT-29 cells – cell-based, CellTiter-Glo luminescence, IC50, dose response (AID 1117330); format: functional
[22] = Reduced DLD-1 viability, concentration-response, CellTiter-Glo luminescence (AID 1117352); format: functional
[23] = HCT116 cell viability decrease, GSK3B pretreatment – CellTiter-Glo, IC50, dose response (AID 1117339); format: functional; details: HCT-116

Sequence of RNA-editing ligase 1, mitochondrial (P86926 whole entry): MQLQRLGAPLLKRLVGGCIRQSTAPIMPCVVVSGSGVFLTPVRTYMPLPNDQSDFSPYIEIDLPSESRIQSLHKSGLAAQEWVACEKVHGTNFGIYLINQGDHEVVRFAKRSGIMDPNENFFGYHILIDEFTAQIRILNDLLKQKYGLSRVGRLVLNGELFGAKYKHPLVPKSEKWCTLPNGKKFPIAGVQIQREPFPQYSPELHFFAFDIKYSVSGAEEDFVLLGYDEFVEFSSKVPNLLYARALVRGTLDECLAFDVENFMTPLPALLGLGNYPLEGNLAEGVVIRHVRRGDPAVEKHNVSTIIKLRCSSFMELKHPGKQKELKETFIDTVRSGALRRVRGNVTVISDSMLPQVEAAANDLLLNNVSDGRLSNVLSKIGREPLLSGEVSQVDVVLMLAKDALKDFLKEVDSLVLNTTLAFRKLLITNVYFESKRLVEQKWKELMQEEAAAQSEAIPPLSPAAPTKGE

C[C@H](CO)N1C[C@H](C)[C@H](CN(C)S(=O)(=O)c2ccc(F)cc2)Oc2ccc(NS(=O)(=O)c3ccc(Cl)cc3)cc2C1=O
AC50 (HEK293): 18.9 µM (active) | AC50 [1]: 18.9 µM (active) | AC50 [2]: 10 µM (active) | AC50 [3]: > 39 µM (inactive)

CCCNC(=O)N1[C@H](C#N)[C@H](c2ccc(-c3cccnc3)cc2)[C@@H]1CO
AC50 [4]: 930 nM (active) | AC50 [5]: 10.2 µM (active) | AC50 [6]: 4.97 µM (active) | AC50 [7]: 1.61 µM (active) | AC50 [8]: > 70 µM (inactive)

OC[C@@H]1[C@H](c2ccc(/C=C/c3ccccc3)cc2)[C@H]2CN(CCC(F)(F)F)CCCCN12
AC50 [9]: 17.4 µM (active)

Oc1ccc(C2CCN(c3ccnc4ccccc34)C2)cc1O (centres undefined)
IC50 [10]: 930 nM (active)

COc1ccc2c3c(n(C)c2c1)[C@H](CO)N(C(C)=O)CC31CCN(C(=O)Nc2ccccc2F)CC1
AC50 [11]: 6.63 µM (active)

C[C@H](CO)N1C[C@H](C)[C@@H](CN(C)C(=O)Nc2ccc(C(F)(F)F)cc2)Oc2c(NC(=O)c3ccc(-c4nccs4)cc3)cccc2C1=O
AC50 [12]: 6.41 µM (active)

COC(=O)C1=C(C)N(Cc2ccccc2C(F)(F)F)C(NCc2ccc(OC)cc2)=NC1c1cccc(F)c1 (centres undefined)
IC50 [13]: > 96.6 µM (inactive)

O=C(NOCC1CC1)c1ccc(F)c(F)c1Nc1ccc(I)cc1Cl [CI-1040]
IC50 [14]: > 10 µM (inactive) | IC50 [15]: 4.95 nM (active) | IC50 [16]: 3.19 nM (active) | IC50 [17]: 1.79 nM (active) | IC50 [18]: 17.1 nM (active) | IC50 [19]: 848 nM (active) | IC50 [20]: > 10 µM (inactive) | IC50 [21]: 26.3 nM (active) | IC50 [22]: 2.16 µM (active) | IC50 [23]: 969 nM (active)

— ChEMBL document CHEMBL1201862, “PubChem BioAssay data set” (2004)
